Measured values reported in ChEMBL document CHEMBL1649490, “First detection of plasmid-encoded blaOXY beta-lactamase” (2009).
In brackets after ≈: the same amount, converted by molar mass.

Tests used:
Format in all cases: functional
[1] = system: Klebsiella pneumoniae; test: Antimicrobial activity against Klebsiella pneumoniae 278sp by Etest method
[2] = system: Escherichia coli; test: Antimicrobial activity against Escherichia coli TF-KO279 harboring beta-lactamase OXY-1 by Etest method
[3] = system: Klebsiella oxytoca; test: Antimicrobial activity against Klebsiella oxytoca KO279 harboring beta-lactamase OXY-1 by Etest method
[4] = system: Escherichia coli; test: Antimicrobial activity against Escherichia coli DH5alpha by Etest method; conditions: DH5[alpha]
[5] = system: Klebsiella oxytoca; test: Antimicrobial activity against Klebsiella oxytoca KO280 harboring beta-lactamase OXY-1 by Etest method
[6] = system: Klebsiella pneumoniae; test: Antimicrobial activity against Klebsiella pneumoniae 278 harboring beta-lactamase OXY-1 by Etest method
[7] = system: Escherichia coli; test: Antimicrobial activity against Escherichia coli TF-KP278 harboring beta-lactamase OXY-1 by Etest method
[8] = system: Klebsiella pneumoniae; test: Antimicrobial activity against Klebsiella pneumoniae 101A harboring beta-lactamase CMY-2 by Etest method
[9] = system: Klebsiella oxytoca; test: Antimicrobial activity against Klebsiella oxytoca KO281 harboring beta-lactamase OXY-1 and CMY-2 by Etest method
[10] = system: Escherichia coli; test: Antimicrobial activity against Escherichia coli TF-KO281 harboring beta-lactamase OXY-1 by Etest method

C[C@@H](O)[C@H]1C(=O)N2C(C(=O)O)=C(SCCNC=N)C[C@H]12 [IMIPENEM ANHYDROUS]
MIC [1]: 0.25 µg/mL (≈ 0.835 µM)
MIC [2]: 0.19 µg/mL (≈ 0.635 µM)
MIC [3]: 0.25 µg/mL (≈ 0.835 µM)
MIC [4]: 0.19 µg/mL (≈ 0.635 µM)
MIC [5]: 0.25 µg/mL (≈ 0.835 µM)
MIC [6]: 0.25 µg/mL (≈ 0.835 µM)
MIC [7]: 0.19 µg/mL (≈ 0.635 µM)
MIC [8]: 0.38 µg/mL (≈ 1.27 µM)
MIC [9]: 0.25 µg/mL (≈ 0.835 µM)
MIC [10]: 0.19 µg/mL (≈ 0.635 µM)

CC(C)(O/N=C(\C(=O)N[C@@H]1C(=O)N2C(C(=O)[O-])=C(C[n+]3ccccc3)CS[C@H]12)c1csc(N)n1)C(=O)O [CEFTAZIDIME]
MIC [1]: 1 µg/mL (≈ 1.83 µM)
MIC [2]: 0.75 µg/mL (≈ 1.37 µM)
MIC [3]: 4 µg/mL (≈ 7.32 µM)
MIC [4]: 0.25 µg/mL (≈ 0.457 µM)
MIC [5]: 4 µg/mL (≈ 7.32 µM)
MIC [6]: 1.5 µg/mL (≈ 2.74 µM)
MIC [7]: 0.75 µg/mL (≈ 1.37 µM)
MIC [8]: 64 µg/mL (≈ 117 µM)
MIC [9]: ≥ 256 µg/mL
MIC [10]: 1 µg/mL (≈ 1.83 µM)

CC1(C)S[C@@H]2[C@H](NC(=O)[C@H](N)c3ccccc3)C(=O)N2[C@H]1C(=O)O [AMPICILLIN]
MIC [1]: 96 µg/mL (≈ 275 µM)
MIC [2]: ≥ 256 µg/mL
MIC [3]: ≥ 256 µg/mL
MIC [4]: 4 µg/mL (≈ 11.4 µM)
MIC [5]: ≥ 256 µg/mL
MIC [6]: ≥ 256 µg/mL
MIC [7]: ≥ 256 µg/mL
MIC [8]: ≥ 256 µg/mL
MIC [9]: ≥ 256 µg/mL
MIC [10]: ≥ 256 µg/mL

CO[C@@]1(NC(=O)Cc2cccs2)C(=O)N2C(C(=O)O)=C(COC(N)=O)CS[C@@H]21 [CEFOXITIN]
MIC [1]: 4 µg/mL (≈ 9.36 µM)
MIC [2]: 2 µg/mL (≈ 4.68 µM)
MIC [3]: 3 µg/mL (≈ 7.02 µM)
MIC [4]: 2 µg/mL (≈ 4.68 µM)
MIC [5]: 3 µg/mL (≈ 7.02 µM)
MIC [6]: 4 µg/mL (≈ 9.36 µM)
MIC [7]: 2 µg/mL (≈ 4.68 µM)
MIC [8]: ≥ 256 µg/mL
MIC [9]: ≥ 256 µg/mL
MIC [10]: 2 µg/mL (≈ 4.68 µM)

CCn1cc(C(=O)O)c(=O)c2cc(F)c(N3CCNCC3)cc21 [NORFLOXACIN]
MIC [1]: 0.125 µg/mL (≈ 0.391 µM)
MIC [2]: 0.5 µg/mL (≈ 1.57 µM)
MIC [3]: 1.5 µg/mL (≈ 4.7 µM)
MIC [4]: 0.094 µg/mL (≈ 0.294 µM)
MIC [5]: 1 µg/mL (≈ 3.13 µM)
MIC [6]: 1 µg/mL (≈ 3.13 µM)
MIC [7]: 0.38 µg/mL (≈ 1.19 µM)
MIC [8]: 0.125 µg/mL (≈ 0.391 µM)
MIC [9]: 1.5 µg/mL (≈ 4.7 µM)
MIC [10]: 0.5 µg/mL (≈ 1.57 µM)

O=C(O)c1cn(C2CC2)c2cc(N3CCNCC3)c(F)cc2c1=O [CIPROFLOXACIN]
MIC [1]: 0.047 µg/mL (≈ 0.142 µM)
MIC [3]: 0.38 µg/mL (≈ 1.15 µM)
MIC [4]: 0.032 µg/mL (≈ 0.0966 µM)
MIC [5]: 0.25 µg/mL (≈ 0.754 µM)
MIC [6]: 0.38 µg/mL (≈ 1.15 µM)
MIC [8]: 0.047 µg/mL (≈ 0.142 µM)
MIC [9]: 0.38 µg/mL (≈ 1.15 µM)

C[C@H]1[C@H](NC(=O)/C(=N\OC(C)(C)C(=O)O)c2csc(N)n2)C(=O)N1S(=O)(=O)O [AZTREONAM]
MIC [1]: 0.064 µg/mL (≈ 0.147 µM)
MIC [2]: 64 µg/mL (≈ 147 µM)
MIC [3]: ≥ 256 µg/mL
MIC [4]: 0.023 µg/mL (≈ 0.0528 µM)
MIC [5]: ≥ 256 µg/mL
MIC [6]: 32 µg/mL (≈ 73.5 µM)
MIC [7]: 64 µg/mL (≈ 147 µM)
MIC [8]: 6 µg/mL (≈ 13.8 µM)
MIC [9]: ≥ 256 µg/mL
MIC [10]: 128 µg/mL (≈ 294 µM)

CO/N=C(\C(=O)N[C@@H]1C(=O)N2C(C(=O)O)=C(COC(C)=O)CS[C@H]12)c1csc(N)n1 [CEFOTAXIME]
MIC [1]: 0.047 µg/mL (≈ 0.103 µM)
MIC [2]: 0.25 µg/mL (≈ 0.549 µM)
MIC [3]: 1.5 µg/mL (≈ 3.29 µM)
MIC [4]: 0.023 µg/mL (≈ 0.0505 µM)
MIC [5]: 1.5 µg/mL (≈ 3.29 µM)
MIC [6]: 1 µg/mL (≈ 2.2 µM)
MIC [7]: 0.25 µg/mL (≈ 0.549 µM)
MIC [8]: 6 µg/mL (≈ 13.2 µM)
MIC [9]: 16 µg/mL (≈ 35.1 µM)
MIC [10]: 0.38 µg/mL (≈ 0.834 µM)

CO/N=C(\C(=O)N[C@@H]1C(=O)N2C(C(=O)[O-])=C(C[N+]3(C)CCCC3)CS[C@H]12)c1csc(N)n1 [CEFEPIME]
MIC [1]: 0.19 µg/mL (≈ 0.395 µM)
MIC [3]: 1.5 µg/mL (≈ 3.12 µM)
MIC [4]: 0.032 µg/mL (≈ 0.0666 µM)
MIC [5]: 1.5 µg/mL (≈ 3.12 µM)
MIC [6]: 1 µg/mL (≈ 2.08 µM)
MIC [8]: 0.5 µg/mL (≈ 1.04 µM)
MIC [9]: 1.5 µg/mL (≈ 3.12 µM)
MIC [10]: 0.38 µg/mL (≈ 0.791 µM)
